Results as given in patent US9439928B2, “Method for combined conditioning and chemoselection in a single cycle” (THE REGENTS OF THE UNIVERSITY OF CALIFORNIA, priority 2011, dated 2016).
Several values for one entry are separate records, joined by “and”; a condition that tells them apart may be missing. Identical values can stand only once. Like-named read-outs stand apart in the source and are kept apart here.

Key:
[1] = test system: Hprt-shRNA transduced hematopoietic cells; details: total body irradiation preconditioning; 6TG 0.25-2 mg/kg, short periods, started 4 weeks or more after transplantation; cited from earlier work
[2] = test system: HPRT-wt CD45.1 recipients of HPRT-deficient CD45.2 BM; assay: Immunophenotypic analysis of hematopoietic tissues 4 months post-transplantation, congeneic CD45.1/CD45.2 transplant model; type: in vivo, mice; details: n=5
Protocol: Multi-lineage reconstitution of lymphohematopoiesis by donor-derived progenitor cells was evaluated 4 months after HSCT with combined 6TG preconditioning and in vivo chemoselection, i.e., 3 months after the end of the 4-week chemoselection period.

[3] = cited from earlier work
[4] = test system: secondary female recipients of HPRT-deficient male donor BM; assay: Serial transplantation into secondary recipients with 6TG conditioning and chemoselection; type: in vivo, mice
Excerpt: To further evaluate whether the optimized regimen combining 6TG conditioning with chemoselection selects for long-term repopulating HSCs, we next transplanted BM from primary recipients at 7 months post-transplantation into secondary recipients using the same regimen. The secondary transplant recipients were then maintained for 3 months after the end of their 4-week course of 6TG in vivo chemoselection (Supplementary Figure S3). After 6TG conditioning and chemoselection, HPRT-deficient male donor cells that had engrafted primary recipients were able to serially repopulate secondary female recipients at high levels, (95.5%±1.1%, as determined by XY-FISH).

[5] = test system: HPRT-wt mice; assay: Chronic low-dose 6TG myelotoxicity in HPRT-wt mice; details: for survival: over 60 days; for BM histology: mouse, in vivo
[6] = test system: HPRT-deficient mice; assay: Chronic low-dose 6TG treatment in HPRT-deficient mice
Protocol: (§1) C57BL/6J and B6.129P2-Hprt1^b-m3/J mice were injected intraperitoneally (i.p.) with 200 μl of varying doses of 6TG (Sigma-Aldrich, Saint Louis, Mo.) at different time points as described in the figure legends. Control animals were i.p. injected with 200 μl of sterile H2O.
Necropsy of all mice used in this study and histological examination of all thoracic and abdominal organs and bone marrow was performed by the UCLA Division of Laboratory Animal Medicine Diagnostic Service Laboratory. Tissues were routinely processed or decalcified if necessary, and paraffin sections were cut and stained with hematoxylin and eosin (H&E).
HPRT-wt and HPRT-deficient mice (n=3 per group) were injected i.p. with vehicle alone, 0.25 mg/kg, 0.5 mg/kg, 1.0 mg/kg, 2.5 mg/kg, or 5.0 mg/kg 6TG every 3 days for up to 60 days.

[7] = test system: BM of HPRT-wt recipients of HPRT-deficient BM; assay: Immunophenotypic analysis of BM at 4, 7 and 12 months post-transplantation with 6TG conditioning and chemoselection; type: in vivo, mice; details: for B220+ cells, BM (%) / CD4+ cells, BM (%) / CD8+ cells, BM (%) / KLS (HSC) cells, BM (%) / Mac1+/Gr1+ cells, BM (%): % of total CD45+ cells; for CD45+ cells, BM (%): mean ± SD
Protocol: The relative percentages of CD4+ and CD8+ cells, B220+ cells, and Mac-1+/Gr1+ cells, as well as KLS (lin^−/sca-1^+/c-kit^+) HSC, were determined in BM by immunophenotyping at 4 months, 7 months, and 12 months (Table 6), and compared to treatment-naïve female HPRT-wt (Table 2) and treatment-naïve male HPRT-deficient (Table 3) control mice. […] Thus, HPRT-deficient donor-derived marrow was able to achieve long-term reconstitution of normal hematopoiesis for at least 12 months post-transplantation.

[8] = test system: BM of HPRT-deficient mice; details: mouse, in vivo, 10 mg/kg
Protocol: as §1
After blocking with Mouse BD Fc Block (BD Biosciences, San Jose, Calif.), BM, PBL, thymus, or spleen cells were stained with FITC-, PE-, PerCP- or APC-conjugated rat anti-mouse antibodies against CD45, CD45.2, CD4, CD8, Mac1/Gr1, B220, Sca-1, c-kit, and lineage antibody cocktail. Antibodies were received from Biolegend (San Diego, Calif.) or BD Biosciences. Flow cytometric data were acquired on a BD LSRII running BD FACSDiva (BD Biosciences) and analyzed using FlowJo software (TreeStar, Ashland, Oreg.) (Supplementary Figure S2).

[9] = test system: HPRT-wt female recipients of HPRT-deficient male BM; details: for donor-derived BM engraftment, XY-FISH / donor-derived PBL, XY-FISH: 5 mg/kg x 4 weeks regimen
Protocol: Female recipient C57BL/6J (HPRT-wt) or B6.SJL-Ptprc^aPepc^b/BoyJ (HPRT-wt, CD45.1) mice were treated with 10 mg/kg 6TG by i.p. injection 48 hrs before HSCT. For HSCT, 0.8-1×10^7 nucleated BM cells isolated from B6.129P2-Hprt1^b-m3/J male mice (CD45.21 were intravenously injected into HPRT-wt recipients. 6TG (10 mg/kg) was again administered by i.p. injection 2 hrs later, and every 3 days thereafter, at 5 mg/kg for 4 weeks. Serial transplantation into secondary recipient mice was performed using the same cell dose and 6TG preconditioning/chemoselection regimen as above, but using BM from primary recipient mice that had undergone transplantation with 6TG in vivo chemoselection 6 months previously.
FISH was performed on BM and PBL cells using the mouse-specific Whole Chromosome-Y paint probe/RAB9 (XqF1) DNA probes mix (Kreatech, Amsterdam, Netherlands) according to the manufacturer's protocol. To determine the percentage of male donor HPRT-wt cells in the female recipient C57BL/6J mice, 200 nuclei per slide were counted using a fluorescence microscope (Zeiss) equipped with appropriate dual and triple-colour filters.
Accordingly, female HPRT-wt mice were preconditioned with 6TG (10 mg/kg i.p.), with one dose administered 48 hours prior (Day −2) and one dose administered on the day of transplantation (Day 0) per the conditioning schedule established previously. […] Analysis was performed immediately after the in vivo chemoselection period at 2 weeks or 4 weeks, respectively (FIG. 4).

[10] = test system: BM of HPRT-wt recipients; assay: Transplantation of HPRT-deficient BM after 6TG conditioning alone in HPRT-wt recipients; type: in vivo, mice; details: day 4
Excerpt: After conditioning, HPRT-wt recipients were then transplanted with BM from HPRT-deficient congenic donors (CD45.2),

[11] = secondary recipients, 3 months after end of 4-week chemoselection, mean ± SD, n=6
[12] = secondary recipients, % of total CD45+ cells, n=6
[13] = 4, 7 and 12 months after transplantation

## Nc1nc2nc[nH]c2c(=S)[nH]1 [6TG, 6-thioguanine]
[1]
  engraftment levels: 5-50%
[2]; % of total CD45.2+ cells
  B220+ cells, BM (%): 29.3 ± 6.3%
  B220+ cells, PBL (%): 45.4 ± 3.8%
  B220+ cells, Spleen (%): 58.2 ± 8.6%
  CD4+ cells, BM (%): 3.2 ± 1.3%
  CD4+ cells, PBL (%): 17.0 ± 3.0%
  CD4+ cells, Spleen (%): 22.6 ± 3.6%
  CD4+ cells, Thymus (%): 10.4 ± 2.8%
  CD4+/CD8+ cells, Thymus (%): 79.3 ± 4.2%
  CD8+ cells, BM (%): 3.0 ± 1.3%
  CD8+ cells, PBL (%): 12.7 ± 0.9%
  CD8+ cells, Spleen (%): 14.9 ± 2.1%
  CD8+ cells, Thymus (%): 4.3 ± 0.8%
  Mac1+/Gr1+ cells, BM (%): 80.68 ± 6.1%
  Mac1+/Gr1+ cells, PBL (%): 28.2 ± 3.3%
  Mac1+/Gr1+ cells, Spleen (%): 14.1 ± 1.6%
[2]; mean ± SD
  CD45.2+ cells, BM (%): 76.1 ± 9.3%
  CD45.2+ cells, PBL (%): 73.8 ± 5.2%
  CD45.2+ cells, Spleen (%): 65.9 ± 5.2%
  CD45.2+ cells, Thymus (%): 89.7 ± 8.3%
[3]; as much as 35 mg/kg in a single oral dose
  effect of high single oral dose: reversible myelosuppression
[3]; oral, estimated
  absorption after oral 6TG administration: ~30%
[4]; BM from primary recipients at 7 months, same 6TG regimen
  repopulation of secondary female recipients by HPRT-deficient male donor cells, XY-FISH: 95.5%±1.1
[4]; [11]
  CD45+ cells, BM (%): 84.6 ± 4.7%
  CD45+ cells, PBL (%): 95.8 ± 1.4%
[4]; [12]
  B220+ cells, BM (%): 19.1 ± 2.9%
  B220+ cells, PBL (%): 33.3 ± 12.3%
  CD4+ cells, BM (%): 4.1 ± 1.0%
  CD4+ cells, PBL (%): 7.0 ± 3.3%
  CD8+ cells, BM (%): 2.4 ± 0.8%
  CD8+ cells, PBL (%): 7.0 ± 3.2%
  Mac1+/Gr1+ cells, BM (%): 78.3 ± 4.7%
  Mac1+/Gr1+ cells, PBL (%): 31.6 ± 11.7%
[5]; HPRT-wt, 0.25 mg/kg 6TG i.p. every 3 days, n=3
  survival: 100%
[5]; HPRT-wt, 0.5 mg/kg 6TG i.p. every 3 days, n=3
  survival: 100%
[5]; HPRT-wt, 1.0 mg/kg 6TG every 3 days, n=3, 1 mg/kg
  deaths occurred on Day: 38 and 42 and 51
[5]; HPRT-wt, 2.5 mg/kg 6TG every 3 days, 22.5 mg/kg total dosage
  Day of sacrifice necessitated by distress, anemia and weight loss: 28
[5]; HPRT-wt, 5.0 mg/kg 6TG every 3 days, 35 mg/kg total dosage
  Day of sacrifice necessitated by distress, anemia and weight loss: 22
[5]; 0.25 mg/kg
  BM histology: normal cellularity
[5]; 0.5 mg/kg
  BM histology: normal cellularity
[5]; 1 mg/kg
  BM histology: several apoptotic figures and more blast cells
[5]; 2.5 mg/kg
  BM histology: reduced cellularity and widespread apoptosis
[5]; 5 mg/kg
  BM histology: markedly depleted
[6]; 0.25-5.0 mg/kg 6TG every 3 days, up to 105 mg/kg total dose, 60 days
  survival: survived for the duration of the experiment
[6]; chronic 6TG, Day 60
  histology of other tissues (heart, lung, liver, pancreas, kidney, spleen): No significant treatment-related abnormalities
[6]; regardless of 6TG dosage, Day 60
  BM pathology: No significant BM pathology
[7]; 4 months post-transplantation
  B220+ cells, BM (%): 51.8 ± 2.4%
  CD4+ cells, BM (%): 2.5 ± 0.6%
  CD8+ cells, BM (%): 1.9 ± 0.1%
  KLS (HSC) cells, BM (%): 7.8 ± 1.0%
  Mac1+/Gr1+ cells, BM (%): 77.0 ± 13.0%
  CD45+ cells, BM (%): 91.6 ± 1.9%
[7]; 7 months post-transplantation
  B220+ cells, BM (%): 32.9 ± 3.8%
  CD4+ cells, BM (%): 3.8 ± 0.2%
  CD8+ cells, BM (%): 2.2 ± 0.4%
  KLS (HSC) cells, BM (%): 7.0 ± 1.1%
  Mac1+/Gr1+ cells, BM (%): 80.8 ± 2.3%
  CD45+ cells, BM (%): 94.3 ± 2.1%
[7]; 12 months post-transplantation
  B220+ cells, BM (%): 11.5 ± 2.8%
  CD4+ cells, BM (%): 2.8 ± 2.7%
  CD8+ cells, BM (%): 1.8 ± 0.6%
  KLS (HSC) cells, BM (%): 1.8 ± 0.6%
  Mac1+/Gr1+ cells, BM (%): 72.3 ± 5.4%
  CD45+ cells, BM (%): 82.5 ± 4.9%
[8]
  B220+ cells in BM: 10.7 ± 3.5%
  BM histology (H&E): completely unaffected
  CD4+ cells in BM: 2.9 ± 1.7%
  CD8+ cells in BM: 2.7 ± 0.4%
  CD45+ cells in BM: 90.0 ± 2.0%
  KLS (HSC) cells in BM: 2.0 ± 0.6%
  Mac1+/Gr1+ cells in BM: 79.3 ± 2.9%
  count of nucleated BM cells obtained from one femur and tibia: 1.5×10^7±0.3×10^7
[9]; 4 months after transplantation
  donor-derived BM engraftment, XY-FISH: 97.7%±0.5
[9]; 4 months after transplantation, p=0.01
  donor-derived PBL, XY-FISH: 67.4%±10.6
[9]; 7 months after transplantation
  donor-derived BM engraftment, XY-FISH: 94.7%±1.9
[9]; 7 months after transplantation, p<0.01
  donor-derived PBL, XY-FISH: 73.3%±7.9
[9]; 12 months after transplantation
  donor-derived BM engraftment, XY-FISH: 93.0%±0.8
[9]; 12 months after transplantation, p<0.01
  donor-derived PBL, XY-FISH: 73.0%±10.7
[9]; [13]
  gross pathological and histological examination: no significant abnormalities
  long-term condition of transplanted animals: remained alive and well
[9]; 6TG pre-conditioning and single cycle chemoselection
  replacement of the recipient BM: > 95%
[9]; 6TG-treated transplanted animals
  body weights: decreased initially during the first week after transplantation in the 6TG-treated animals, but stabilized and all animals regained normal weight thereafter
[9]; combined 6TG conditioning and post transplant chemoselection
  engraftment of HPRT-deficient donor BM (XY-FISH), summary: ~95%
[9]; mouse, in vivo
  tolerability of combined 6TG conditioning, HSCT and in vivo chemoselection: well-tolerated
[9]; regardless of 6TG chemoselection dosage or duration
  histopathology: overall cellularity and hematopoiesis of BM: indistinguishable from the untreated HPRT-wt control
[10]; 6TG 10 mg/kg i.p. Day -2 and Day 0, HPRT-deficient BM transplant, n=4
  count of nucleated BM cells recovered: 3.8×10^6±0.5×10^6
[10]; 6TG 10 mg/kg i.p. Day -2 and Day 0 conditioning alone
  total BM cell population derived from donor HPRT-deficient CD45.2+ hematopoietic cells (flow cytometry): 17.8%±4.4
